The assay deals with DU145 cells stably expressing MYC or vector control. Briefly: Growth curves, MTT assay, DU145 cells stably expressing MYC or vector control. Type of assay: cell-based, human.

As for `OCc1c[nH]c2ccccc12` [I3C, indole-3-carbinol], where the note is “MYC-overexpressing DU145 cells, same low dose of I3C”, the “cell growth upon overexpression of MYC” value is reported as “became sensitized”. The “cell growth of control cells” value (vector control DU145 cells, low dose of I3C) is on record as “little effect on the cell growth”.

(Values after patent US20190374506A1, “COMPOSITIONS AND METHODS FOR TREATING CANCER” (BETH ISREAL DEACONESS MEDICAL CENTER, priority 2016, published 2019).)
